For the test, the target named is T1, β-glucuronidase Type VII-A derived from Escherichia coli (Escherichia coli, UniProt P05804).
T1 construct: purchased Sigma-Aldrich Corporation
Nature of the test: Inhibition of β-glucuronidase activity (PNPG substrate, absorbance at 400 nm). The test is classed as biochemical. As to conditions: for Inhibition rate (%) Concentration 0.001%: 0.001 wt % in reaction solution. Here is the method:
100 μL of a 2 mM PNPG aqueous solution, 40 μL of a 0.5 M phosphate buffer (pH 6.8), 38 μL of ion exchanged water and 2 μL of a 10 or 1 wt % dipropylene glycol (DPG) solution of various compounds or plant extracts were mixed in a bottle γ-ray sterilized in advance, and subsequently 20 μL of a β-glucuronidase aqueous solution adjusted to 16 units/mL was added, in order to allow the enzyme to react in a thermostat bath at 37° C. for 2 hours. Further, in the case of some of compounds, in addition to the above steps, the same experiment was performed using a 0.1 wt % DPG solution as well. As a result, the concentrations of the test compounds and plant extracts in the reaction solution were adjusted to 0.1, 0.01 and 0.001 wt %, respectively. Further, a product prepared by adding DPG in place of the above-mentioned compounds and plant extracts was used as a control, and a product prepared by adding ion exchanged water in place of an enzyme solution was used as a blank for each sample and control, and the respective products were allowed to react for 2 hours in the same manner. It should be noted that the plant extract sample was used as a solvent extract.
The above-mentioned reaction solution was diluted with a 0.2 M glycine buffer (pH 10.4) and measured for its absorbance at a wavelength of 400 nm. The relative activity inhibition rate of a β-glucuronidase was determined by using the obtained measurement value in accordance with the following equation. Absorbance change of control=Absorbance of control−Absorbance of blank for each control Absorbance change of sample=Absorbance of sample−Absorbance of blank for each sample Activity inhibition rate (%)=[(Absorbance change of control−Absorbance change of sample)/Absorbance change of control]×100

[1] abbreviates: 1.6 units/mL enzyme, 37° C., 2 hours, pH 6.8.
Where [2] appears, read: 0.01 wt % in reaction solution, 1.6 units/mL enzyme, 37° C., 2 hours, pH 6.8.
Where [3] appears, read: 0.1 wt % in reaction solution, 1.6 units/mL enzyme, 37° C., 2 hours, pH 6.8.
Where [4] appears, read: 0.01 wt % in reaction solution, 1.6 units/mL enzyme, 37° C., 2 hours, pH 6.8, read-out: Inhibition rate (%) Concentration 0.01%.
The mark [5] stands for this setting: 0.1 wt % in reaction solution, 1.6 units/mL enzyme, 37° C., 2 hours, pH 6.8, read-out: Inhibition rate (%) Concentration 0.1%.
[6] abbreviates: 2 h, pH 6.8, read-out: Inhibition rate (%) Concentration 0.01%.
Where [7] appears, read: 2 h, pH 6.8, read-out: Inhibition rate (%) Concentration 0.1%.

Like-named read-outs stand apart in the source and are kept apart here.

T1 sequence (P05804 whole entry): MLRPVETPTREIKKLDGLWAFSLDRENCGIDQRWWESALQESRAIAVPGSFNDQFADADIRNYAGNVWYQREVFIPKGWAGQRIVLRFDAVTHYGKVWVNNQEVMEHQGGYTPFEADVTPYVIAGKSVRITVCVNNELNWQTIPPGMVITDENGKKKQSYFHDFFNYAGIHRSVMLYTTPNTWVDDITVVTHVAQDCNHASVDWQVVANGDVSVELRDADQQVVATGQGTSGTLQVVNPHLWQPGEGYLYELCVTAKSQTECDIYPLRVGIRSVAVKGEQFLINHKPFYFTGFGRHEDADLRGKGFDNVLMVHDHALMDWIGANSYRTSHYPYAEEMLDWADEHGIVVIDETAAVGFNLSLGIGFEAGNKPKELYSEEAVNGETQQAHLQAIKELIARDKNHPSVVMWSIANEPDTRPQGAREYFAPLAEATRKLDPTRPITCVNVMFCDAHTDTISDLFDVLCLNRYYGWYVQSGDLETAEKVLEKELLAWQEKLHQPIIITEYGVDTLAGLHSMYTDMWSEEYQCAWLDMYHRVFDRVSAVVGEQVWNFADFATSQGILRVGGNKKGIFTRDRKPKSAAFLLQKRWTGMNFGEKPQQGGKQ

3-methyl-4(5)-cyclopentadecen-1-one: the “Inhibition rate (%) Concentration 0.001%” value under setting [1] turned out to be 92.4%. For the same molecule, the “Inhibition rate (%) Concentration 0.01%” value under setting [2] is 99.1%. The “Inhibition rate (%) Concentration 0.1%” value under setting [3] was found to be 98.8%.

On to `CC1=CC[C@H](C(C)C)C=C1` (racemic) [α-Phellandrene, α-phellandrene], for which the “Inhibition rate (%) Concentration 0.01%” value under setting [2] was determined as 50.0%. The “Inhibition rate (%) Concentration 0.1%” value under setting [3] is recorded as 93.6%.

For the molecule `CCC=CCCC=CC=O` [2,6-Nonadienal, 2,6-nonadienal], the inhibition at 0.01 wt % under setting [4] was found to be 60.9%. Moreover, the inhibition at 0.1 wt % under setting [5] worked out at 95.2%.

Regarding `CCCCCCCC1CCCC1=O` (centres unmarked) [2-Heptylcyclopentanone, 2-heptylcyclopentanone], under setting [4], the inhibition at 0.01 wt % was determined as 17.1%. In addition, under setting [5], the inhibition at 0.1 wt % was 70.6%.

As to `CCCCCCCCCC(C)C=O` (centres unmarked) [2-Methylundecanal, 2-methylundecanal], under setting [4], the inhibition at 0.01 wt % turned out to be 57%. In addition, the inhibition at 0.1 wt % under setting [5] is 62.6%.

Regarding `CCCCCC1=CCCC1=O` [2-Pentylcyclopentenone, 2-pentylcyclopentenone], under setting [2], the “Inhibition rate (%) Concentration 0.01%” value came to 93.3%. The “Inhibition rate (%) Concentration 0.1%” value under setting [3] was found to be 97.8%.

As to `CC1CCCCCCCCCCCCC(=O)C1` (centres unmarked) [3-Methylcyclopentadecanone, 3-methylcyclopentadecanone], under setting [4], the inhibition at 0.01 wt % is 57.3%. The inhibition at 0.1 wt % under setting [5] came to 86.4%.

With `O=CCCc1ccccc1` [3-Phenylpropanal, 3-phenylpropanal], the inhibition at 0.01 wt % under setting [4] worked out at 23.3%. Also, the inhibition at 0.1 wt % under setting [5] amounted to 81.7%.

For the molecule `O=C1CCC=CCCCCCCCCCCO1` [4(5)-Cyclopentadecenolide, 4(5)-cyclopentadecenolide], under setting [2], the “Inhibition rate (%) Concentration 0.01%” value is 47.1%. Besides, the “Inhibition rate (%) Concentration 0.1%” value under setting [3] turned out to be 76.5%.

For `O=C1CCC=CCCCCCCCCCC1` [4-Cyclopentadecen-1-one, 4-cyclopentadecen-1-one], under setting [1], the “Inhibition rate (%) Concentration 0.001%” value stood at 67.2%. Besides, under setting [4], the inhibition at 0.01 wt % came to 93.5%. For the same molecule, under setting [5], the inhibition at 0.1 wt % was found to be 99.1%.

On to `O=C1CCCC=CCCCCCCCCCC1` [5-Cyclohexadecen-1-one, 5-cyclohexadecen-1-one], for which, under setting [1], the “Inhibition rate (%) Concentration 0.001%” value was 65.8%. Also, the inhibition at 0.01 wt % under setting [4] turned out to be 93.9%. Under setting [5], the inhibition at 0.1 wt % is 98.4%.

Regarding `O=C1CCCCC/C=C\CCCCCCCCO1` [7-Cyclohexadecenolide, 7-cyclohexadecenolide], the “Inhibition rate (%) Concentration 0.001%” value under setting [1] came to 88.1%. Moreover, the “Inhibition rate (%) Concentration 0.01%” value under setting [2] was determined as 98.5%. In addition, the “Inhibition rate (%) Concentration 0.1%” value under setting [3] worked out at 99.6%.

For the molecule `O=C1CCCCCCCC=CCCCCCCC1` [9-Cycloheptadecen-1-one, 9-cycloheptadecen-1-one], under setting [1], the “Inhibition rate (%) Concentration 0.001%” value came to 95.8%. Also, the inhibition at 0.01 wt % under setting [4] is 96.3%. For the same molecule, under setting [5], the inhibition at 0.1 wt % came out at 100%.

Turning to `O=C1CCCCCCCCOCCCCCCO1` [10-Oxa-16-hexadecanolide, 10-oxa-16-hexadecanolide], the “Inhibition rate (%) Concentration 0.001%” value under setting [1] turned out to be 63.0%. Also, under setting [4], the inhibition at 0.01 wt % worked out at 95.8%. The inhibition at 0.1 wt % under setting [5] is 99.4%.

For `O=C1CCCCCCCCCOCCCCCO1` [11-Oxa-16-hexadecanolide, 11-oxa-16-hexadecanolide], under setting [4], the inhibition at 0.01 wt % came out at 26.8%. The inhibition at 0.1 wt % under setting [5] worked out at 62.8%.

As for `COc1ccc(C=O)cc1` [Anisaldehyde, anisaldehyde], the inhibition at 0.01 wt % under setting [6] is 15.3%. The inhibition at 0.1 wt % under setting [7] was determined as 85.9%.

For the molecule `Cc1ccc2c(c1)OCC(=O)CO2` [Calone, 7-methyl-3,4-dihydro-(2H)-1,5-benzodioxepin-3-one], under setting [4], the inhibition at 0.01 wt % came to 17.3%. Besides, the inhibition at 0.1 wt % under setting [5] is 73.3%.

`CC1=CCCC2(C)OC2CCC(C)=CCC1` (centres unmarked) [Cedroxide, 4,8,12-trimethyl-13-oxabicyclo-[10.1.0]trideca-4,8-diene]: the inhibition at 0.01 wt % under setting [4] turned out to be 40.1%. Moreover, the inhibition at 0.1 wt % under setting [5] is 82.6%.

In the case of `OC/C=C/c1ccccc1` [Cinnamic alcohol, cinnamic alcohol], the inhibition at 0.01 wt % under setting [6] came to 56.2%. For the same molecule, the inhibition at 0.1 wt % under setting [7] was 93.5%.

On to `O=C/C=C/c1ccccc1` [Cinnamic aldehyde, cinnamic aldehyde], for which, under setting [1], the “Inhibition rate (%) Concentration 0.001%” value stood at 46.4%. Under setting [6], the inhibition at 0.01 wt % stood at 96.8%. The inhibition at 0.1 wt % under setting [7] came out at 100%.

With `CC(=O)OCC=Cc1ccccc1` [Cinnamyl acetate, cinnamyl acetate], under setting [4], the inhibition at 0.01 wt % was 51.3%. Besides, under setting [5], the inhibition at 0.1 wt % was determined as 96.2%.

`CC(C)=CCCC(C)=CC=O` [Citral, citral]: the inhibition at 0.01 wt % under setting [4] stood at 29.1%. For the same molecule, the inhibition at 0.1 wt % under setting [5] worked out at 84.1%.

In the case of `CC(C)=CCCC(C)CCO` (centres unmarked) [Citronellol, citronellol], the inhibition at 0.01 wt % under setting [4] worked out at 47.4%. The inhibition at 0.1 wt % under setting [5] came out at 76.2%.

Consider `CC(=O)OCCC(C)CCC=C(C)C` (centres unmarked) [Citronellyl acetate, citronellyl acetate], for which the inhibition at 0.01 wt % under setting [4] amounted to 44.8%. For the same molecule, the inhibition at 0.1 wt % under setting [5] stood at 84.2%.

On to `CC(C)=CCCC(C)CC#N` (centres unmarked) [Citronellyl nitrile, citronellyl nitrile], for which, under setting [2], the “Inhibition rate (%) Concentration 0.01%” value is recorded as 41.8%. The “Inhibition rate (%) Concentration 0.1%” value under setting [3] is 92.4%.

In the case of `CC(C)c1ccc(C=O)cc1` [Cuminaldehyde, cuminaldehyde], the inhibition at 0.01 wt % under setting [4] turned out to be 37.8%. For the same molecule, under setting [5], the inhibition at 0.1 wt % turned out to be 97.1%.

On to `CC(C=O)Cc1ccc(C(C)C)cc1` (centres unmarked) [Cyclamen aldehyde, cyclamen aldehyde], for which the “Inhibition rate (%) Concentration 0.001%” value under setting [1] came to 27.4%. Further, under setting [2], the “Inhibition rate (%) Concentration 0.01%” value is on record as 82.7%. Besides, under setting [3], the “Inhibition rate (%) Concentration 0.1%” value turned out to be 87.5%.

`O=C1CCCCCCCCCCCCCC1` [Cyclopentadecanone, cyclopentadecanone]: the inhibition at 0.01 wt % under setting [4] came out at 35.6%. Besides, the inhibition at 0.1 wt % under setting [5] worked out at 73.3%.

Turning to `O=CCCC=C1CC2CC1C1CCCC21` (centres unmarked) [Dupical, 4-(tricyclo[5.2.1.0^2,6]decylidene-8)butenal], the “Inhibition rate (%) Concentration 0.01%” value under setting [2] stood at 65.5%. For the same molecule, under setting [3], the “Inhibition rate (%) Concentration 0.1%” value worked out at 73.5%.

For the molecule `C=CCc1ccc(OC)cc1` [Estragole, estragole], under setting [4], the inhibition at 0.01 wt % is 94.6%. In addition, under setting [5], the inhibition at 0.1 wt % turned out to be 99.4%.

As to `CCOc1cc(C=O)ccc1O` [Ethylvanillin, ethylvanillin], the inhibition at 0.01 wt % under setting [6] stood at 38.5%. Further, the inhibition at 0.1 wt % under setting [7] is 78.5%.

For the molecule `C=CCc1ccc(O)c(OC)c1` [Eugenol, eugenol], under setting [4], the inhibition at 0.01 wt % came out at 36.8%. The inhibition at 0.1 wt % under setting [5] is 93.2%.

`CC(C)=CCC/C(C)=C/CO` [Geraniol, geraniol]: under setting [4], the inhibition at 0.01 wt % came to 56.8%. For the same molecule, the inhibition at 0.1 wt % under setting [5] stood at 79.8%.

Take `CCC12CCC3C(C)(C)CCCC3(C)C1CCO2` (stereo not drawn) [Grisalva, 6,6,9α-trimethyl-3α-ethyldodecahydronaphtho[2,1-b]furan]: the “Inhibition rate (%) Concentration 0.01%” value under setting [2] was 50.4%. Under setting [3], the “Inhibition rate (%) Concentration 0.1%” value turned out to be 77.3%.

As to `CC(C=O)Cc1ccc2c(c1)OCO2` (centres unmarked) [Helional, 2-methyl-3-(3,4-methylenedioxyphenyl)-propanal], the inhibition at 0.01 wt % under setting [4] was found to be 32.4%. Also, the inhibition at 0.1 wt % under setting [5] is 76.4%.

On to `CC(CC=O)CCCC(C)(C)O` (centres unmarked) [Hydroxycitronellal, hydroxycitronellal], for which, under setting [4], the inhibition at 0.01 wt % came out at 24.2%. Moreover, the inhibition at 0.1 wt % under setting [5] is 85.3%.
